From patent US6825217B2, “Carbinols for the treatment of neuropathic dysfunction” (Endo Pharmaceuticals, Inc., priority 2001, dated 2004)

Columns and labels:
[1] = target: T1, rat synaptosomal NE Reuptake (Rattus norvegicus, UniProt Q63380); assay: Norepinephrine reuptake assay (rat synaptosomal NE uptake); type: biochemical
T1 construct: rat synaptosomal 5-HT and NE Reuptake; from tissue; host or cells: rat synaptosomes (rat brain preparations)

uptake of dopamine = target: T2, uptake of dopamine (Rattus norvegicus, UniProt P23977); assay: Dopamine uptake in rat brain preparations; type: biochemical; conditions: printed as 'and/or dopamine'
T2 construct: dopamine in rat brain preparations; from tissue; host or cells: rat brain preparations

Monkey tail dip = type: in vivo; conditions: unmarked entry of animal model table
Rat Tail-Flick = type: in vivo; parameters: key to activity in rat Tail Flick model: *: Inactive; Φ: Weakly active
[2] = target: T3, delta receptor sites in the brain (Homo sapiens, UniProt P41143); assay: Activity at delta receptor sites in the brain; type: binding
T3 construct: mu, kappa, delta or sigma receptor sites in the brain; from tissue

Rat Randall-Selitto = type: in vivo; parameters: key to activity in rat Randell-Selitto model: *: Inactive; Φ: Weakly active
Safety pharmacology, dog = type: in vivo
[3] = Safety pharmacology, mouse; type: in vivo
[4] = Side effects at effective doses; type: in vivo; conditions: at effective doses for neuropathic pain
[5] = target: T4, mu receptor sites in the brain (Homo sapiens, UniProt P35372); assay: Activity at mu receptor sites in the brain; type: binding
T4 construct: mu, kappa, delta or sigma receptor sites in the brain; from tissue

[6] = Abuse assay (self-administration); type: in vivo, Cynomologous monkeys
Description: Cynomologous monkeys are trained to self-administer drugs by pressing on a lever a certain number of times. The number of times an animal will press the lever before extinquishing in an attempt to self-administer drug is calculated as their fixed ratio (FR). For example, cynomologous monkeys that are trained to self-administer codeine will press the lever 300 times (FR 300) and or 10,000 times (FR 10,000) to obtain a dose of codeine. Cynomologous monkeys were trained to self-administer the compounds of the present invention.

T1 sequence (Q63380 1-617): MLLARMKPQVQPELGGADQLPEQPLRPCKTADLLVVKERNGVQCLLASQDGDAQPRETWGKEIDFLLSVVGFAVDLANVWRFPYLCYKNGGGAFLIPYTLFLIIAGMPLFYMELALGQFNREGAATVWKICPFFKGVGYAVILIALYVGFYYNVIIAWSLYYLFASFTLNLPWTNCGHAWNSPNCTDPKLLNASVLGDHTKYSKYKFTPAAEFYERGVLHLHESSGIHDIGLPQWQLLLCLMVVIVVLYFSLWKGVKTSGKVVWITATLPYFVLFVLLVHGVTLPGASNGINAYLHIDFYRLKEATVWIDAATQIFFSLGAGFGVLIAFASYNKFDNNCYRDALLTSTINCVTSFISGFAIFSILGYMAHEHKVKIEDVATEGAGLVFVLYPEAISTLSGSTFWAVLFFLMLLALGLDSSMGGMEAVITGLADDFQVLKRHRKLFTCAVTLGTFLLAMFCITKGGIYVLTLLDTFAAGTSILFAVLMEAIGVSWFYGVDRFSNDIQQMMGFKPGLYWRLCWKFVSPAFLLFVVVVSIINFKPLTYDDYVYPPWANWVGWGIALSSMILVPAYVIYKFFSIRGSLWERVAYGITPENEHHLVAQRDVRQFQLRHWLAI
T4 sequence (P35372 whole entry): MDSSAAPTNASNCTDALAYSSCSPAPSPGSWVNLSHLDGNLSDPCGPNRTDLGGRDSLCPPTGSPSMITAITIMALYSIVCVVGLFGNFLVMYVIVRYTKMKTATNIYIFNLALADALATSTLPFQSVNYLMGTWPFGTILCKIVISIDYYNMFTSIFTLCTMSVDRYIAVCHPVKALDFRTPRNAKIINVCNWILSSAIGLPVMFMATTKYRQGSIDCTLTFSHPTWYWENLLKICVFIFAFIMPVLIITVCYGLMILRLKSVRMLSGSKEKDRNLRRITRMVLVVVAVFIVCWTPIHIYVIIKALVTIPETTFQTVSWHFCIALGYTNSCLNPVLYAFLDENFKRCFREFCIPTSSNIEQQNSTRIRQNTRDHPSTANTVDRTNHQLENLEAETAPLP
T3 sequence (P41143 whole entry): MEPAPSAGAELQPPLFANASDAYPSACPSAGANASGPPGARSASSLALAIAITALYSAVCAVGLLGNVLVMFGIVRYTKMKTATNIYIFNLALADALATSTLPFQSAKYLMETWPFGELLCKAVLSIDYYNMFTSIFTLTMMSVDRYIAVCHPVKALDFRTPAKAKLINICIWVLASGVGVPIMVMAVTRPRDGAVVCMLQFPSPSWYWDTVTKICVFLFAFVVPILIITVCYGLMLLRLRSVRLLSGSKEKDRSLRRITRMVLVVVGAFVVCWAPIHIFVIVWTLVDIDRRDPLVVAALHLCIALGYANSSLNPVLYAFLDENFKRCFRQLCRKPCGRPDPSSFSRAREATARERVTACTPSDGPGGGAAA
T2 sequence (P23977 whole entry): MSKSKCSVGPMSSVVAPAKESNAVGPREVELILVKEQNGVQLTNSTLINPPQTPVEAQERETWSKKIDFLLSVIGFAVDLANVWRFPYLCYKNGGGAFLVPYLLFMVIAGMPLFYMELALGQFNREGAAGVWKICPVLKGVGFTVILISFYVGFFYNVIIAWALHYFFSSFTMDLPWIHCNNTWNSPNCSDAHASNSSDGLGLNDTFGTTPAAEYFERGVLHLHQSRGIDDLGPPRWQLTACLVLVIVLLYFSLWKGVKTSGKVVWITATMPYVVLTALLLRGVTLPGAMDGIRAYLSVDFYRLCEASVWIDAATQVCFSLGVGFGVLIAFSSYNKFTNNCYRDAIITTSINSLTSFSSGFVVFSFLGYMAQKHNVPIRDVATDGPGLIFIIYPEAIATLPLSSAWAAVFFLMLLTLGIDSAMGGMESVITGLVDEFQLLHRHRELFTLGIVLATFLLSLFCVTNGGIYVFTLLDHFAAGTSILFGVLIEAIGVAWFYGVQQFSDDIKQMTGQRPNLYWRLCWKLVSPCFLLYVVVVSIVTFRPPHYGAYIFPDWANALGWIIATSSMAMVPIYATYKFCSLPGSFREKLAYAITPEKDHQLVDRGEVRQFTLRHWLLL

CN1CCC(c2ccsc2)(C(C)(C)O)CC1 [Compound A, 4-(3-thienyl)-α,α,1-trimethyl-4-piperidinemethanol]
uptake of norepinephrine ([1]; rat brain preparations): inhibits uptake
IC50 ([1]; rat synaptosomal, read-out: NE uptake inhibition IC50): 223 nM
uptake of dopamine (uptake of dopamine): inhibits uptake
activity in monkey Tail dip model (Monkey tail dip): showed activity
Rat Tail-Flick (Rat Tail-Flick): Inactive
activity in rat Tail Flick model (Rat Tail-Flick): Tail Flick*
activity at delta receptor sites [2]: does not show significant activity
ED50 (Rat Randall-Selitto; Rattus norvegicus): 32 mg/kg
activity in rat Randell-Selitto model (Rat Randall-Selitto; rat): Randell-Selitto^Φ
MTD (Safety pharmacology, dog; in vivo): 20 mg/kg
hypotension/decreased cardiac contractility, anemia, multiple of effective dose (Safety pharmacology, dog; iv-pentobarb): 10 X
emesis/anorexia BW loss, multiple of effective dose (Safety pharmacology, dog; po): 1-10 X
respiratory acidosis, multiple of effective dose (Safety pharmacology, dog; po): 10 X
LD ([3]; po): LD = 900 mg/kg-po
cross-tolerance to morphine, multiple of effective dose ([3]; po/iv): 1-50 X
inhibition of GI motility, multiple of effective dose ([3]; po/iv): 1 X
mydriasis, multiple of effective dose ([3]; po/iv): 1 X
anticholinergic side effects, sedation or other signs of motor impairment [4]: not accompanied by anticholinergic side effects, sedation or other signs of motor impairment
activity at mu receptor sites [5]: does not show significant activity
monkeys responding following involuntary injections ([6]; Cynomologous monkeys): two out of four monkeys
self-administration response achieved ([6]; Cynomologous monkeys trained to self-administer): one out of four monkeys
